{"source": "paper PMC6678576", "about": "“Spectroscopic Characterisation of the Naphthalene Dioxygenase from Rhodococcus sp. Strain NCIMB12038” (International Journal of Molecular Sciences, 2019)", "molecular_target": "T1, naphthalene 1,2-dioxygenase (NDO; ISPNAR) from Rhodococcus sp. strain NCIMB12038 (Rhodococcus sp. NCIMB 12038, UniProt Q9X3R9)", "T1 construct": "gene narAa; native oxygenase component purified from naphthalene-grown Rhodococcus cells; alpha3beta3; Rieske [2Fe-2S] and mononuclear iron; with Naphthalene 1,2-dioxygenase small (beta) subunit", "T1 sequence (Q9X3R9 1-470)": "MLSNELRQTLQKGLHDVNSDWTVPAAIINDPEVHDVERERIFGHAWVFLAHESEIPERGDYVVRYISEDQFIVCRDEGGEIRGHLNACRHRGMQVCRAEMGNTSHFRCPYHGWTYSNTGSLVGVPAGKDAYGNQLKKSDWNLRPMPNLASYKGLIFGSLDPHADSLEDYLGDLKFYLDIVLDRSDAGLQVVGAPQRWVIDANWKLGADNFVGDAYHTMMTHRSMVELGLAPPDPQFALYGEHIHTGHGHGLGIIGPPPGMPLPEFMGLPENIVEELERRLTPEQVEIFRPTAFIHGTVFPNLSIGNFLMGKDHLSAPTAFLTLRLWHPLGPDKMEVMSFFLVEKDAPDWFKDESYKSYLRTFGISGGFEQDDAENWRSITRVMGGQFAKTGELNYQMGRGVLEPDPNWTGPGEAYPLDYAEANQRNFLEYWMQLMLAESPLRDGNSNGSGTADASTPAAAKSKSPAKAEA", "T1 sequence (Q7BSK6 1-172 partner)": "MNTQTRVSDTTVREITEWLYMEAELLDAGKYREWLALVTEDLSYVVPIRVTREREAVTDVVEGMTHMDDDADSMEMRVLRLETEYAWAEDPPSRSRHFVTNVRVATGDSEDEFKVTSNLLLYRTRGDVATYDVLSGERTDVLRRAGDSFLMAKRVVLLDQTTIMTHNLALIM", "test": "EPR ([…] K) and UV-Vis of single turnover and peroxide shunt", "type": "binding", "settings": "dithionite-reduced NDO with O2-saturated naphthalene, or H2O2 peroxide shunt; no reductase or ferredoxin; 50 mM Tris-HCl pH 7.8, 10% ethanol, 10% glycerol, 0.5 mM DTT", "data": [{"smiles": "c1ccc2ccccc2c1", "note": "[naphthalene]", "values": [{"measurement": "EPR (20 K) and UV-Vis of single turnover and peroxide shunt", "result": "NDO, with reduced Rieske and mononuclear iron centres, is able to react with naphthalene"}]}]}
